Measurements reported in patent publication US20250250227A1, “AMINO LIPID COMPOUND, PREPARATION METHOD THEREFOR, COMPOSITION THEREOF AND USE THEREOF” (SHENZHEN SHENXIN BIOTECHNOLOGY CO., LTD., priority 2022, published 2025).

How the values were obtained:
[1] = Preparation and characterisation of mRNA-encapsulating lipid nanoparticle (encapsulation efficiency, particle size); assay type: physicochemical; conditions: LNP encapsulating Fluc mRNA; Lipid:DSPC:CHO-HP:M-DMG-2000 48:10:40.5:1.5
Protocol: A specified amount of Fluc mRNA stock solution, 0.2 M sodium acetate buffer, and DEPC water were added to a container, and mixed well to obtain a water phase;
The amino lipid compound of the present disclosure, a helper lipid, a structural lipid, and a PEG-lipid were separately dissolved in absolute ethanol to prepare respective solutions at concentrations of 20 mg/mL, 10 mg/mL, 20 mg/mL, and 25 mg/mL, respectively. The above four solutions were pipetted at a molar ratio of Lipid:DSPC:CHO—HP:M-DMG-2000 of 48:10:40.5:1.5, and mixed well to prepare an alcohol phase. • (2) Encapsulation: The water phase and the alcohol phase were injected into a microfluidic chip at a flow rate of water phase: alcohol phase=12 mL/min: 4 mL/min by using a microfluidic preparation instrument (MPE-L2), and encapsulation was carried out at a flow rate of water phase: alcohol phase=9 mL/min: 3 mL/min to obtain mRNA-encapsulating lipid nanoparticle (mRNA-LNP). • (3) Dialysis: The product of step (2) was loaded in a dialysis bag and placed in a Tris Buffer-8% sucrose solution for replacement to remove ingredients such as residual ethanol, unassembled lipids. Dialysis was conducted for 2 h with magnetic stirring at room temperature and under protection from light (dialysate was replaced every 1 hour). • (4) The product of step (3) was sterilized by passing through a […] microporous membrane, and then packaged.
Lipid nanoparticle formulations encapsulating Fluc mRNA were prepared, with a concentration of Fluc mRNA of 0.2 g/L, a mass ratio of Fluc mRNA to Lipid of 1:10, a particle size of 80-130 nm, and a encapsulation efficiency of 85% or higher.
The encapsulation efficiency of the lipid nanoparticle encapsulating luciferase mRNA (Fluc mRNA) with a representative amino lipid compound and the fluorescence expression intensity induced by the same are shown in Table 4, with the amino lipid compound 118 as a control. […]

Female BALB/c mice = test: Performance evaluation of in vivo delivery of Fluc mRNA lipid nanoparticle (IVIS, body and organs); conditions: Fluc mRNA LNP; for Liver (fluorescence expression intensity) / Spleen (fluorescence expression intensity): 75 μL IV; for Liver (fluorescence expression intensity) / Spleen (fluorescence expression intensity) / Total flux (fluorescence expression intensity) / (Spleen/Total Flux) * 100%: 6 hours after injection; for Liver (fluorescence expression intensity) / Spleen (fluorescence expression intensity) / Total flux (fluorescence expression intensity): IVIS; for Total flux (fluorescence expression intensity): 75 μL tail vein injection (IV); for (Spleen/Total Flux) * 100% / Multiple of spleen delivery/total delivery to amino lipid compound 118: IV; for Multiple of spleen delivery/total delivery to amino lipid compound 118: relative to amino lipid compound 118
Protocol: Animal preparation: Female BALB/c mice of 6-8 weeks old were selected and raised in an SPF grade breeding room. Animal testing was conducted in strict accordance with the guidelines of national health institutions and animal ethics requirements.
In vivo Delivery: prior to injection of the test LNP formulations, the LNP formulations were gently and repeatedly inverted to thoroughly mix the formulation samples. A corresponding amount of the formulation samples were aspirated with a 1 ml insulin syringe, and the LNP formulations were injected by tail vein injection (IV), with 3 mice in duplicate per formulation. Each mouse was injected with 75 μL of the luciferase mRNA (Fluc mRNA)-encapsulating lipid nanoparticle formulation prepared in Experimental Example 1.
6 hours after injection of LNP formulations, mice were injected with 200 μL D-Luciferin luciferase developing substrate (Catalog No. 122799; Manufacturer: Perkin Elmer). After the substrate was injected, the mice were anesthetized with isoflurane inhalation, and the injection time of luciferase developing substrate was recorded.
The encapsulation efficiency of the lipid nanoparticle encapsulating luciferase mRNA (Fluc mRNA) with a representative amino lipid compound and the fluorescence expression intensity induced by the same are shown in Table 4, with the amino lipid compound 118 as a control.
The multiple of spleen delivery/total delivery of fluorescence expression intensity induced by lipid nanoparticle encapsulating luciferase mRNA (Fluc mRNA) with a representative amino lipid compound to amino lipid compound 118 is shown in Table 5.

Compound	Encapsulation efficiency [1] [%]	Liver (fluorescence expression intensity) (Female BALB/c mice)	Spleen (fluorescence expression intensity) (Female BALB/c mice)	Total flux (fluorescence expression intensity) (Female BALB/c mice)	(Spleen/Total Flux) * 100% (Female BALB/c mice) [%]	Multiple of spleen delivery/total delivery to amino lipid compound 118 (Female BALB/c mice)
CCCCCCC(CCCCCC)OC(=O)CCCCCCCCC(CCCCCCCCC(=O)OC(CCCCCC)CCCCCC)OC(=O)N(CCCN(C)C)CCC(=O)OC(C)CCCC (stereo not drawn) [Compound 320]	92.13	1.13E+08	4.97E+06	7.04E+08	0.71	2.08
CCCCCCC(CCCCCC)OC(=O)CCCCCCCCC(CCCCCCCCC(=O)OC(CCCCCC)CCCCCC)OC(=O)N(CCCN(C)C)CCC(=O)OC(CC)CCC (stereo not drawn) [Compound 321]	93.85	1.27E+08	1.47E+07	7.21E+08	2.04	6.00
CCCCCCC(CCCCCC)OC(=O)CCCCCCCCC(CCCCCCCCC(=O)OC(CCCCCC)CCCCCC)OC(=O)N(CCCN(C)C)CCC(=O)OC(C)CCCCC (stereo not drawn) [Compound 322]	90.32	9.73E+07	6.56E+06	7.90E+08	0.83	2.44
CCCCCCC(C)OC(=O)CN(CCCN(C)C)C(=O)OC(CCCCCCCCC(=O)OC(CCCCCC)CCCCCC)CCCCCCCCC(=O)OC(CCCCCC)CCCCCC (stereo not drawn) [Compound 337]	92.38	6.49E+07	3.30E+06	3.58E+08	0.92	2.71
CCCCCCC(CCCCCC)OC(=O)CCCCCCCCC(CCCCCCCCC(=O)OC(CCCCCC)CCCCCC)OC(=O)N(CCCN(C)C)CC(=O)OC(CC)CCCCC (stereo not drawn) [Compound 338]	91.13	1.07E+08	3.20E+06	6.32E+08	0.51	1.49
CCCCCCC(CCCCCC)OC(=O)CCCCCCCCC(CCCCCCCCC(=O)OC(CCCCCC)CCCCCC)OC(=O)N(CCCCCC(=O)OCC)CCCN1CCCC1 [Compound 365]	92.45	9.03E+07	4.45E+06	6.73E+08	0.66	1.94
CCCCCCC(CCCCCC)OC(=O)CCCCCCCCC(CCCCCCCCC(=O)OC(CCCCCC)CCCCCC)OC(=O)N(CCCCCC(=O)OCC)CCCCN1CCCC1 [Compound 366]	93.63	8.92E+07	4.11E+06	5.82E+08	0.71	2.08
CCCCCCC(CCCCCC)OC(=O)CCCCCCCCC(CCCCCCCCC(=O)OC(CCCCCC)CCCCCC)OC(=O)N(CCCN1CCCC1)CC(=O)OCC [Compound 367]	91.21	1.06E+07	4.33E+05	9.45E+07	0.46	1.35
CCCCCCC(CCCCCC)OC(=O)CCCCCCCCC(CCCCCCCCC(=O)OC(CCCCCC)CCCCCC)OC(=O)N(CCCCN1CCCC1)CC(=O)OCC [Compound 368]	87.51	6.14E+07	1.25E+07	3.97E+08	3.15	9.26
CCCCCCC(CCCC)COC(=O)CCCCCCCCC(CCCCCCCCC(=O)OCC(CCCC)CCCCCC)OC(=O)N(CCCC(=O)OCCCCC)CCCN(C)C (stereo not drawn) [Compound 371]	93.17	2.92E+08	2.36E+07	1.12E+09	2.11	6.20
CCCCCCOC(=O)CCN(CCCN(C)C)C(=O)OC(CCCCCCCCC(=O)OCC(CCCC)CCCCCC)CCCCCCCCC(=O)OCC(CCCC)CCCCCC (stereo not drawn) [Compound 372]	92.17	1.67E+08	8.59E+06	5.43E+08	1.58	4.65
CCCCCCCOC(=O)CCN(CCCN(C)C)C(=O)OC(CCCCCCCCC(=O)OCC(CCCC)CCCCCC)CCCCCCCCC(=O)OCC(CCCC)CCCCCC (stereo not drawn) [Compound 373]	92.01	9.15E+07	6.93E+06	4.77E+08	1.45	4.27
CCCCCCCOC(=O)CN(CCCN(C)C)C(=O)OC(CCCCCCCCC(=O)OCC(CCCC)CCCCCC)CCCCCCCCC(=O)OCC(CCCC)CCCCCC (stereo not drawn) [Compound 375]	94.18	1.55E+08	7.63E+06	4.06E+08	1.88	5.53
